What was measured:
isolated rat hearts = assay: Langendorff isolated heart model, ischemia/reperfusion; recovery of contractibility; set-up: species or system Sprague-Dawley rat; conditions: 30 min regional ischemia, 60 min reperfusion; N-acetyl cysteine 36.8 mmol/L, deferoxamine 3.9 mmol/L; N=3 rats per group
Excerpt: Laboratory trials in murine model, by means of the use of the Langendorff isolated heart model, allowed to preliminarily establish the contribution of the secondary components of the solution in isolated form, in conjunction and in tri-association with sodium ascorbate on the attenuation of lethal reperfusion by means of the evaluation of the percentage of recovery of contractibility, subsequent to the reestablishment of the blood flow, […]
Sprague-Dawley adult male rats (250 to 300 g) were anesthetized with pentobarbital (80 mg/kg IP). Heparine (100 U/kg IV) was administered and the hearts were rapidly extracted and perfused with Krebs-Henseleit solution oxygenated in a Langendorff perfusion system at 37° C. […] The ventricular pressure was measured with a latex balloon inserted, in the left ventricular and connected to a pressure transductor. […]
Evaluation of the injury: The capacity was measured of both components isolated, in conjunction and in tri-association with sodium ascorbate in high dosage, in order to recover the cardiac contractibility, loss associated to the injury due to reperfusion.
For the analysis of the results parametric statistic of the continuous variables was used, expressing the position in terms of arithmetic mean and dispersion based on the standard deviation. The differences between multiple groups were analysed by means of ANOVA with Bonferroni test as Post-Hoc. […]

[1] = tested on: patients diagnosed with acute myocardium infarction with indication of primary angioplasty; assay: PREVEC Phase II randomized, double blind, placebo controlled clinical trial; left ventricular ejection fraction by cardiac magnetic resonance; type: in vivo, human
Description: In a group of 50 patients subjected to a primary angioplasty due to acute infarction diagnosis, treated only with massive dosage of sodium ascorbate (equivalent dosage to the one used in the three component formulation), a recovery was observed that has never before been reported of the cardiac function in a medium term, only referable to an attenuation of the late effects of the injury due to reperfusion. The evaluation was carried out by means of cardiac magnetic resonance, technique considered the present gold standard for this kind of studies.
A randomized, double blind, placebo controlled clinical trial was applied to patients diagnosed with acute myocardium infarction with indication of primary angioplasty, previously enrolled.
As inclusion criteria, was defined: Individuals of any sex older than 18 years of age; Latency of admission of up to 12 hours since presenting symptoms; First myocardium infarction; Killip 1 and 2; Capacity and willingness to sign consent form.
As exclusion criteria was established: Renal or hepathic insufficiency history; Cardiac failure history (NYHA III, IV); Cardiogenic shock; Comorbility that determines a life expectancy<6 months; Participation in another investigation; Pregnancy; Glucose 6—Phosphate Dehydrogenase deficiency.
Patients were administered an oral dose of vitamin E (800 IU), followed by a sodium ascorbate infusion (320 mmol/L). The placebo group received an inert infusion of sodium chloride solution of the same osmolarity as the sodium ascorbate infusion. Serial blood samples were taken to analyse biomarkers related to myocardium, injury, oxidative stress and inflammation in order to evaluated efficiency on injury due to early reperfusion. […]
The statistical analysis of the preliminary results, was carried out using non parametric statistics, using the median as position measurement, interquartile range as dispersion measurement and the Mann-Whitney U test to determine the statistical significance. Differences between the multiple groups was analysed by means of a Kruskal-Wallis test. […]

Row | SMILES | improvement of recovery of contractibility regarding the control group (Placebo) (isolated rat hearts) | early cardiac function (left ventricular ejection fraction), treated versus placebo ([1]; day 6 after primary angioplasty, sodium ascorbate infusion 320 mmol/L after oral vitamin E 800 IU) | change in left ventricular ejection (difference between day 84 and day 6), treated versus placebo ([1]; difference of values 84 and six days after angioplasty, p<0.05) | left ventricular ejection fraction, higher in treated patients versus placebo ([1]; three months (day 84) after primary angioplasty, sodium ascorbate infusion 320 mmol/L after oral vitamin E 800 IU, p<0.05)
1 | CC(=O)N[C@@H](CS)C(=O)O [N-acetyl cysteine] | 189% | – | – | –
2 | CC(=O)N(O)CCCCCNC(=O)CCC(=O)N(O)CCCCCNC(=O)CCC(=O)N(O)CCCCCN [deferoxamine] | 113% | – | – | –
3 | O=C1O[C@H]([C@@H](O)CO)C([O-])=C1O.[Na+] [sodium ascorbate] | – | did not show any difference | significantly higher | 33%
